The subject of assay [1] is HEK293 cells. The class given is cell-based. As for the experimental part: Toxicity detection method: a standard universal test program was used to perform the in vitro cytotoxicity test. 2500 HEK293 cells were cultured in a 96-well plate, and allowed to grow overnight. Cytotoxic compounds and their corresponding conjugated compounds were added into each well in different concentrations, cultivated with the cells at 37° C. for 72 hours, and then treated with MTT reagents. OD changes were read. The approximate multiples of the toxicity change were obtained by comparing the IC50 of the modified compounds to their corresponding cytotoxic compounds.

Assay [2] concerns the target T1, asparagine endopeptidase (Homo sapiens, UniProt Q99538).
T1 sequence (Q99538 26-323 limits assumed): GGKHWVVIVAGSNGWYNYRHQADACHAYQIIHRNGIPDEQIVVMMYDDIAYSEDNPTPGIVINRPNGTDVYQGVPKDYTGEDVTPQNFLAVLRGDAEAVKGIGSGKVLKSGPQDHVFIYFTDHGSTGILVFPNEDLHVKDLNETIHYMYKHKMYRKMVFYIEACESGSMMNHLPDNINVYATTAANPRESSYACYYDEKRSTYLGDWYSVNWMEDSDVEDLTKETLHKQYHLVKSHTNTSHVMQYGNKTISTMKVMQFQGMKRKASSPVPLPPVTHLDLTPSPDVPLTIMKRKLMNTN
The method, then: Reduction of reactant and increase of product were detected by HPLC, thereby comparing the activation efficiency of these compounds.
When R1 is 2-(2-Methoxyethoxy)Acetyl, and R3 is Ala, activation study and efficacy study were carried out by using compounds having different cleavable linker. The study methods are identical to those in Examples 10, 11 and 12. The in vitro activation efficiency was tested by asparagine endopeptidase and the tumor inhibition rate was tested by using human breast cancer MDA-MB231 model.

The test system of assay [3] is Human breast cancer MDA-MB231 cells. Format: in vivo, nude mice. The conditions noted are these: for tumor inhibition rate (%): mouse, in vivo. The method, then: 1) Human breast cancer MDA-MB231 cells were purchased from American type culture collection (ATCC) and identified according the specification provided by ATCC. Cells were cultivated in […] (DMEM culture medium) containing 10% fetal bovine serum at 37° C. and 5% CO2. The cells were passaged for every three days and cells within the 15th passage were used.
2) Production of tumor. 5×10^6 MDA-MB231 cells were subcutaneously injected to the back of the nude mice. Mice were randomly grouped after the tumor reached at least 100 mm^3. Then treatment began and the day on which the treatment began was day 1.
3) Course of treatment. […] The drugs were administered once weekly for four weeks.
When R1 is 2-(2-Methoxyethoxy)Acetyl, and R3 is Ala, activation study and efficacy study were carried out by using compounds having different cleavable linker. The study methods are identical to those in Examples 10, 11 and 12. The in vitro activation efficiency was tested by asparagine endopeptidase and the tumor inhibition rate was tested by using human breast cancer MDA-MB231 model. […]

Assay [4] relates to Human breast cancer MDA-MB435 tumor tissue homogenate. The class given is biochemical. The conditions noted are these: Human breast cancer MDA-MB435 tumor tissue homogenate (30 μg/ml); 1 mg/ml compound. The method, then:
(§1) At 37 °C, sample compounds were added into 100 μg acidized tumor tissue homogenates (pH6.0) in a concentration of 1 mg/ml.
(§2) At 37 °C, sample compounds were added into 100 μg acidized human breast cancer (MDA-MB435) tumor tissue homogenates (pH6.0) in a concentration of 1 mg/ml.
(§3) […], sample compounds were added into 100 μg acidized tumor tissue homogenates (pH6.0) in a concentration of 1 mg/ml.
as §2
(§4) At 37 °C, sample compounds were added into 100 μg acidized tumor tissue homogenates in a concentration of 1 mg/ml.
(§5) In the experiments, at 37 °C, compounds were added into proteases in 100 μg acidized tumor tissue homogenates in a concentration of 1 mg/ml. […] Meanwhile certain compounds produced in the screening were compared and their activation efficiency in same tissue was analyzed.
(§6) At 37° C., compounds were added into proteases in 100 μg acidized tumor tissue homogenates in a concentration of 1 mg/ml.

Assay [5] has as its system Human heart. Format: biochemical. As to conditions: Human heart homogenate; 1 mg/ml compound.
Assay [6] concerns Human chronic leukemia K562 tumor tissue homogenate. The class given is biochemical. As to conditions: Human chronic leukemia K562 tumor tissue homogenate (30 μg/ml); 1 mg/ml compound. The method, then: as §1, §3, §4, §5, §6
For assay [7], the system named is Human colon cancer HT-29 tumor tissue homogenate. Format: biochemical. As to conditions: Human colon cancer HT-29 tumor tissue homogenate (30 μg/ml); 1 mg/ml compound. The method, then:
as §1, §3, §4, §5, §6

Assay [8] concerns Human liver cancer Hepg2 tumor tissue homogenate. The class given is biochemical. The conditions noted are these: Human liver cancer Hepg2 tumor tissue homogenate (30 μg/ml); 1 mg/ml compound. The method, then: as §1, §3, §4, §5, §6
The subject of assay [9] is Human non-small cell lung cancer A549 tumor tissue homogenate. Format: biochemical. As to conditions: Human non-small cell lung cancer A549 tumor tissue homogenate (30 μg/ml); 1 mg/ml compound. The method, then: as §1, §3, §4, §5, §6
Assay [10] concerns Human pancreatic cancer Panc-1 tumor tissue homogenate. The class given is biochemical. The conditions noted are these: Human pancreatic cancer Panc-1 tumor tissue homogenate (30 μg/ml); 1 mg/ml compound. As for the experimental part:
as §1, §3, §4, §5, §6

For assay [11], the system named is Human renal cancer OS-RC-2 tumor tissue homogenate. The class given is biochemical. As to conditions: Human renal cancer OS-RC-2 tumor tissue homogenate (30 μg/ml); 1 mg/ml compound. As for the experimental part: as §1, §3, §4, §5, §6
The test system of assay [12] is D121 lung tumor cells. The class given is in vivo, C57 mice. The method, then:
1) D121 lung tumor cells were purchased from ATCC. Cells were cultivated in DMEM culture solution containing 10% fetal bovine serum at 37° C. and 5% CO2. The cells were passaged for every three days and cells within the 15th passage were used.
2) Tumor immunization. 5×10^5 D121 lung cancer cells (purchased from ATCC) which were killed by irradiation were intraperitoneally injected to mice. The mice were injected for 3 times, once every two weeks. After immunization, mice were injected with tumor cells and the drugs were administered weekly for 4 weeks.
3) Production of tumor. At day 32, 10^6 live lung tumor cells were subcutaneously injected to the back of the C57 mice immunized by tumor. Treatment began when the tumor grew to 0.3-0.4 cm.
2) Tumor immunization. 5×10^5 D121 lung cancer cells (purchased from ATCC) which were killed by irradiation were intraperitoneally injected to mice. The mice were injected for 3 times, once every two weeks. After immunization, mice were injected with tumor cells and the drugs were administered weekly for 4 weeks. In table 16 below the immune group was immuned with D121 lung tumor cells and the group without dead D121 lung tumor cells was injected with physiological saline as controls.
3) Production of tumor. After immunization (4 weeks later), 10^6 live lung tumor cells were subcutaneously injected to the back of the C57 mice immunized by tumor. Treatment began when the tumor grew to 0.3-0.4 cm. Tumor size (mm^3) were noted and tumor inhibition rates were calculated.
2) Tumor immunization. 5×10^5 D121 lung cancer cells (purchased from ATCC) which were killed by irradiation were intraperitoneally injected to mice. The mice were injected for 3 times, once every two weeks. After immunization, mice were injected with tumor cells and the drugs were administered weekly for 4 weeks. In the table below the immune group was immuned with D121 lung tumor cells and the group without dead D121 lung tumor cells was injected with physiological saline as controls.
3) Production of tumor. At day 32, 10^6 live D121 lung tumor cells were subcutaneously injected to the back of the C57 mice immunized by tumor. Treatment began when the tumor grew to 0.3-0.4 cm.
1) D121 lung tumor cells were purposed from ATCC. Cells were cultivated in DMEM culture solution containing 10% fetal bovine serum at 37° C. and 5% CO2. The cells were passaged for every three days and cells within the 15th passage were used.

In assay [13] the test system is tumor CD8+ T cells. Format: in vivo, C57 mice. As to conditions: D121 immunized C57 mice, 13.2 μmol/kg; ratio of CD8 positive cells in CD45 positive cells of tumor. The method, then: (§7) 4) Analysis on tumor CD8+ T cells. The tumor tissue was homogenated and individual cells in the tumor were filtered, separated and washed by buffer twice, then cultivated with the leucocyte common antigen CD45-PE and CD8-FITC marked antibodies for 1 hour at ambient temperature. The cells were washed by phosphate buffer containing 1% fetal bovine serum twice and then analyzed for the ratio of the T lymphocyte antigen (CD8) positive cells in the leucocyte common antigen (CD45) positive cells by flow cytometry.
as §7, with “CD45-PE and T-lymphocyte antigen CD8-FITC marked” for “CD45-PE and CD8-FITC marked”, “flow cytometry. Increasement of the ratio indicates increased T lymphocyte cells and thus the animal immunity against the tumor was improved.” for “flow cytometry.”
as §7, with “cytometry. Increasement of the ratio indicates increased T lymphocyte cells and thus the animal immunity against the tumor was improved.” for “cytometry.”

Structures are written as SMILES. *1 amine or outer side, *2 acyl side, *3 side chain or, on linkers, in order; H or OH if unused. Where a SMILES comes first, the peptide text is derived from it. [ ]: non-standard residue; d: D form. The star is where a group is joined. ξ: configuration not given here. Doxorubicin(3'-N) = COc1cccc2c1C(=O)c1c(O)c3c(c(O)c1C2=O)C[C@@](O)(C(=O)CO)C[C@@H]3O[C@H]1C[C@H](N*)[C@H](O)[C@H](C)O1; Dolaproine(all-ξ) = COC(C(C)C(=O)[*:2])C1CCCN1[*:1]; Dolaproine = CO[C@@H]([C@@H]1CCCN1)[C@@H](C)C(=O)O; Dil = CC[C@H](C)[C@H](NC)[C@@H](CC(=O)O)OC; X1 = CCC(C)C(C(CC(=O)[*:2])OC)N(C)[*:1]; PABC = O=C(OCc1ccc(N[*:1])cc1)[*:2]; X3 = C[C@@H](N*)[C@@H](O)c1ccccc1; MeOCH2CH2OCH2CO = COCCOCC(=O)*; NMeV = CN[CH](C(=O)O)C(C)C; X2 = CC(N*)C(O)c1ccccc1; Cbz = O=C(OCc1ccccc1)*

`CC[C@H](C)[C@@H]([C@@H](CC(=O)N1CCC[C@H]1[C@H](OC)[C@@H](C)C(=O)N[C@H](C)[C@@H](O)c1ccccc1)OC)N(C)C(=O)[C@@H](NC(=O)[C@H](C(C)C)N(C)C(=O)OCc1ccc(NC(=O)[C@H](CC(N)=O)NC(=O)[C@H](C)NC(=O)[C@H](C)NC(C)=O)cc1)C(C)C` [AC-AAN-PABC-MMAE] (Ac-AAN[PABC][NMeV]V[Dil][Dolaproine]-X3): the “Cytoxicity reduced (Multiples)” value in assay [1] worked out at 15.5 Multiples. This compound returned a Cleaving efficiency in assay [2] of 3.4%. In assay [3], the “tumor inhibition rate (%)” value is reported as 16.7%.

Turning to `CC[C@H](C)[C@@H]([C@@H](CC(=O)N1CCC[C@H]1[C@H](OC)[C@@H](C)C(=O)N[C@H](C)[C@@H](O)c1ccccc1)OC)N(C)C(=O)[C@@H](NC(=O)[C@H](C(C)C)N(C)C(=O)OCc1ccc(NC(=O)[C@H](CC(N)=O)NC(=O)[C@H](C)NC(=O)[C@H](C)NC(=O)OCc2ccccc2)cc1)C(C)C` [CBZ-AAN-PABC-MMAE] (Cbz-AAN[PABC][NMeV]V[Dil][Dolaproine]-X3), the “Cytoxicity reduced (Multiples)” value in [1] came out at 8.3 Multiples. The compound further had a Cleaving efficiency in [2] of 2.6%. For the same compound, the “tumor inhibition rate (%)” value in assay [3] is 9.7%.

`COCCOCC(=O)N[C@H](C(=O)N[C@@H](C)C(=O)N[C@@H](CC(N)=O)C(=O)Nc1ccc(COC(=O)N[C@H]2C[C@H](O[C@H]3C[C@](O)(C(C)=O)Cc4c(O)c5c(c(O)c43)C(=O)c3c(OC)cccc3C5=O)O[C@@H](C)[C@H]2O)cc1)C(C)O` (stereo partly drawn) [Compound S4, 4-N—(N—(N—(N-2-(2-methoxyethoxy)acetyl-L-threonyl)-L-alanyl)-L-asparaginyl)-amino benzyl alcohol-daunorubicin-carbamate]: the “Cytoxicity reduced (Multiple)” value in assay [1] (HEK293, 72 hours, MTT, IC50 of modified compound compared to its corresponding cytotoxic compound, approximate multiples) is on record as 345 Multiple. The “Activation Efficiencies (%)” value came to 83.5% in assay [4]; 2.8% in [5]; 64.5% in assay [6]; 83.5% in [7]; 67.3% in [8]; 64.5% in assay [9]. Further, the “Activation Efficiencies (%)” value in [10] stood at 67.3%; in assay [11] it was 78.5%. Further, the “Size of tumor (mm^3) Day 10” value in [3] (MDA-MB231, nude mice, IV 13.2 μmol/kg once weekly for four weeks, Day 10) worked out at 95.56 ± 57.54 mm^3. Besides, the “Size of tumor (mm^3) Day 24” value in assay [3] (MDA-MB231, nude mice, IV 13.2 μmol/kg once weekly for four weeks, Day 24) was determined as 64.68 ± 43.56 mm^3. Further, in assay [3] (compared to control, camptothecin, capecitabine and daunorubicin groups), the “Effect on tumor growth, in words” value is on record as “strong inhibitory effect on tumor growth”. In [12] (D121 immunized C57 mice, 13.2 μmol/kg weekly, PDL1 antibody 5 μg/kg where combined, Day 18), the “Size of tumor (mm^3) Day 18” value is 316.78 ± 109.98 mm^3. In assay [12] (compared to the control group and the other treatment groups), the “Treatment effects on C57 mice, in words” value is “greatly improved”. In assay [13], the “CD8: CD45 (%)” value was 16.8%.

On to `CCC(C)C(C(CC(=O)N1CCCC1C(OC)C(C)C(=O)NC(C)C(O)c1ccccc1)OC)N(C)C(=O)C(NC(=O)C(C(C)C)N(C)C(=O)OCc1ccc(NC(=O)C(CC(N)=O)NC(=O)C(C)NC(=O)C(C)NC(=O)COCCOC)cc1)C(C)C` (stereo not drawn) [PEG-AAN-PABC-MMAE] (MeOCH2CH2OCH2CO-AAN[PABC][NMeV]V[X1][Dolaproine(all-ξ)]-X2; configuration not given here), for which, in assay [1], the “Cytoxicity reduced (Multiples)” value was 22 Multiples. This compound displayed a Cleaving efficiency in assay [2] of 14.4%. Moreover, the “tumor inhibition rate (%)” value in assay [3] is recorded as 34.4%.

As to `COCCOCC(=O)N[C@@H](C)C(=O)N[C@@H](C)C(=O)N[C@@H](CC(N)=O)C(=O)N[C@@H](CC(C)C)C(=O)N[C@H]1C[C@H](O[C@H]2C[C@](O)(C(=O)CO)Cc3c(O)c4c(c(O)c32)C(=O)c2c(OC)cccc2C4=O)O[C@@H](C)[C@H]1O` [PEG-AANL-DOX] (MeOCH2CH2OCH2CO-AANL-{Doxorubicin(3'-N)}), the “Cytoxicity reduced (Multiples)” value in assay [1] is reported as 110.2 Multiples. For the same compound, the Cleaving efficiency in assay [2] came out at 66.5%. In assay [3], the “tumor inhibition rate (%)” value is 60.3%.

These data come from patent US10682371B2, “Small molecule conjugates specifically activated in tumor microenvironment for targeting and use thereof” (priority 2014, dated 2020).
